Measurements taken from the supplement of paper PMC10307832.

Assays:
Test in all cases: relative viability (nuclei count vs DMSO), 5 days (fraction); higher = more cells survive
Motesanib + Navitoclax = compound: CC1(C)CNc2cc(NC(=O)c3cccnc3NCc3ccncc3)ccc21 [Motesanib] + CC1(C)CCC(c2ccc(Cl)cc2)=C(CN2CCN(c3ccc(C(=O)NS(=O)(=O)c4ccc(N[C@H](CCN5CCOCC5)CSc5ccccc5)c(S(=O)(=O)C(F)(F)F)c4)cc3)CC2)C1 [Navitoclax] (partner 0.5 µM)
Method in brief: (§1)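 Lung cancer cell lines were pin-tool dosed in 1536-well plates on the day after seeding, with either a lone drug or a fixed anchor-drug dose plus five library-drug doses (not always all listed) in √10 steps. Nuclei were counted on 4× images after 5 days. Relative viability is the ratio of treated-well to vehicle-well nuclei counts, with each value a median of duplicate plates.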

Motesanib + Lapatinib = compound: CC1(C)CNc2cc(NC(=O)c3cccnc3NCc3ccncc3)ccc21 [Motesanib] + CS(=O)(=O)CCNCc1ccc(-c2ccc3ncnc(Nc4ccc(OCc5cccc(F)c5)c(Cl)c4)c3c2)o1 [Lapatinib] (partner 2 µM)
Method in brief: as §1

[1] = compound: C[C@@]1(C(=O)Nc2ccc(F)nc2)CCCN1c1nc(Nc2cc(C3CC3)n[nH]2)c2cccn2n1 + CCNC(=O)c1noc(-c2cc(C(C)C)c(O)cc2O)c1-c1ccc(CN2CCOCC2)cc1 [Luminespib] (partner 0.01 µM)
Method in brief: as §1

[2] = compound: C[C@@]1(C(=O)Nc2ccc(F)nc2)CCCN1c1nc(Nc2cc(C3CC3)n[nH]2)c2cccn2n1 + Cc1nc(Nc2ncc(C(=O)Nc3c(C)cccc3Cl)s2)cc(N2CCN(CCO)CC2)n1 [Dasatinib] (partner 0.075 µM)
Method in brief: as §1

In the case of NCI-H1734, the relative viability (Motesanib + Navitoclax; first compound 0.01 µM) is reported as 0.861, the relative viability (Motesanib + Navitoclax; first compound 0.03162 µM) is reported as 0.915 and the relative viability (Motesanib + Navitoclax; first compound 0.1 µM) is reported as 0.796. For the same cell line, the relative viability (Motesanib + Navitoclax; first compound 0.3162 µM) was 0.959, the relative viability (Motesanib + Navitoclax; first compound 1 µM) was 0.938 and the relative viability (Motesanib + Lapatinib; first compound 0.01 µM) was 0.99. It also gave a relative viability (Motesanib + Lapatinib; first compound 0.03162 µM) of 1.14, a relative viability (Motesanib + Lapatinib; first compound 0.1 µM) of 1.03 and a relative viability (Motesanib + Lapatinib; first compound 0.3162 µM) of 1.14. The relative viability (Motesanib + Lapatinib; first compound 1 µM) was 0.99, the relative viability ([1]; first compound 0.04 µM) was 0.201 and the relative viability ([1]; first compound 0.1265 µM) was 0.161. The relative viability ([1]; first compound 0.4 µM) was 0.159, the relative viability ([1]; first compound 1.265 µM) was 0.157 and the relative viability ([2]; first compound 0.04 µM) was 0.345. The relative viability ([2]; first compound 0.1265 µM) was 0.296, the relative viability ([2]; first compound 0.4 µM) was 0.29 and the relative viability ([2]; first compound 1.265 µM) was 0.185.

NCI-H2126 was tested, and the relative viability (Motesanib + Navitoclax; first compound 0.01 µM) was 0.821, the relative viability (Motesanib + Navitoclax; first compound 0.03162 µM) was 0.84 and the relative viability (Motesanib + Navitoclax; first compound 0.1 µM) was 0.874. It also gave a relative viability (Motesanib + Navitoclax; first compound 0.3162 µM) of 0.878, a relative viability (Motesanib + Navitoclax; first compound 1 µM) of 0.813 and a relative viability (Motesanib + Lapatinib; first compound 0.01 µM) of 0.811. For the same cell line, the relative viability (Motesanib + Lapatinib; first compound 0.03162 µM) was 0.768, the relative viability (Motesanib + Lapatinib; first compound 0.1 µM) was 0.718 and the relative viability (Motesanib + Lapatinib; first compound 0.3162 µM) was 0.789. For the same cell line, the relative viability (Motesanib + Lapatinib; first compound 1 µM) was 0.728, the relative viability ([1]; first compound 0.04 µM) was 0.733 and the relative viability ([1]; first compound 0.1265 µM) was 0.429. It also gave a relative viability ([1]; first compound 0.4 µM) of 0.542, a relative viability ([1]; first compound 1.265 µM) of 0.52 and a relative viability ([2]; first compound 0.04 µM) of 0.346. It also gave a relative viability ([2]; first compound 0.1265 µM) of 0.242, a relative viability ([2]; first compound 0.4 µM) of 0.262 and a relative viability ([2]; first compound 1.265 µM) of 0.294.

For EMC-BAC-2, the relative viability (Motesanib + Navitoclax; first compound 0.01 µM) was 1.18, the relative viability (Motesanib + Navitoclax; first compound 0.03162 µM) was 1.15 and the relative viability (Motesanib + Navitoclax; first compound 0.1 µM) was 1.22. It also gave a relative viability (Motesanib + Navitoclax; first compound 0.3162 µM) of 1.19, a relative viability (Motesanib + Navitoclax; first compound 1 µM) of 1.13 and a relative viability (Motesanib + Lapatinib; first compound 0.01 µM) of 0.884. It also gave a relative viability (Motesanib + Lapatinib; first compound 0.03162 µM) of 0.881, a relative viability (Motesanib + Lapatinib; first compound 0.1 µM) of 0.847 and a relative viability (Motesanib + Lapatinib; first compound 0.3162 µM) of 0.926. For the same cell line, the relative viability (Motesanib + Lapatinib; first compound 1 µM) was 0.875, the relative viability ([1]; first compound 0.04 µM) was 0.863 and the relative viability ([1]; first compound 0.1265 µM) was 0.941. The relative viability ([1]; first compound 0.4 µM) was 0.713, the relative viability ([1]; first compound 1.265 µM) was 0.857 and the relative viability ([2]; first compound 0.04 µM) was 0.242. It also gave a relative viability ([2]; first compound 0.1265 µM) of 0.212, a relative viability ([2]; first compound 0.4 µM) of 0.136 and a relative viability ([2]; first compound 1.265 µM) of 0.167.

NCI-H1993 was tested, and the relative viability (Motesanib + Navitoclax; first compound 0.01 µM) was 1.15, the relative viability (Motesanib + Navitoclax; first compound 0.03162 µM) was 0.882 and the relative viability (Motesanib + Navitoclax; first compound 0.1 µM) was 0.912. For the same cell line, the relative viability (Motesanib + Navitoclax; first compound 0.3162 µM) was 0.921, the relative viability (Motesanib + Navitoclax; first compound 1 µM) was 0.802 and the relative viability (Motesanib + Lapatinib; first compound 0.01 µM) was 0.884. For the same cell line, the relative viability (Motesanib + Lapatinib; first compound 0.03162 µM) was 0.893, the relative viability (Motesanib + Lapatinib; first compound 0.1 µM) was 0.801 and the relative viability (Motesanib + Lapatinib; first compound 0.3162 µM) was 0.867. It also gave a relative viability (Motesanib + Lapatinib; first compound 1 µM) of 0.638, a relative viability ([1]; first compound 0.04 µM) of 0.535 and a relative viability ([1]; first compound 0.1265 µM) of 0.476. For the same cell line, the relative viability ([1]; first compound 0.4 µM) was 0.275, the relative viability ([1]; first compound 1.265 µM) was 0.555 and the relative viability ([2]; first compound 0.04 µM) was 0.523. For the same cell line, the relative viability ([2]; first compound 0.1265 µM) was 0.454, the relative viability ([2]; first compound 0.4 µM) was 0.356 and the relative viability ([2]; first compound 1.265 µM) was 0.512.
